Results reported in patent US12257214B2, “Compositions and methods comprising deoxy-pentitols” (The Charlotte Mecklenburg Hospital Authority, priority 2021, dated 2025).

Key:
[1] = test system: HCT 116; assay: ATPlite cell IC50 screening, HCT 116; format: cell-based; settings: Homo sapiens; HCT 116, Colon carcinoma; ATPlite luminescence
Experimental: (§1) In brief, the cells were cultures in relevant medium and treated with a range of 9 doses of 2-deoxyribitol, from 10 mM, 5 mM, 2.5 mM, 1.25 mM, 0.62 mM, 0.31 mM, 0.08 mM, and 0.04 mM. Cells were diluted in the corresponding ATCC recommended medium and dispensed in a 384-well plate, depending on the cell line used, at a density of 100-6400 cells per well in 45 μl medium. For each used cell line the optimal cell density was used. The margins of the plate were filled with phosphate-buffered saline. Plated cells were incubated in a humidified atmosphere of 5% CO2 at 37° C. After 24 hours, 5 μl of compound dilution was added and plates were further incubated. At the end of experiment (t=end), 24 μl of ATPlite 1Step™ (PerkinElmer) solution was added to each well, and subsequently shaken for 2 minutes. After 10 minutes of incubation in the dark, the luminescence was recorded on an Envision multimode reader (PerkinElmer). IC50 was determined in comparison with the control samples. The cell lines tested and their corresponding disease model is indicated the left-most and middle columns, respectively. IC50 values are given in μM values in the right-most column. This screening was performed of a list of cancer cells to establish IC50 values for each of the cancer cell lines. This screening provides evidence for the potential of 2DR to treat many cancer types.

[2] = test system: SW900; assay: ATPlite cell IC50 screening, SW900; format: cell-based; settings: Homo sapiens; SW900, Squamous cell lung carcinoma; ATPlite luminescence
Experimental: as §1

[3] = Water solubility; format: physicochemical
Text: (§2) It can be delivered by direct application to local areas, given orally or through vasculature system. 2-deoxyribitol can also be delivered before, at the same time, or after the use of other drugs. 2-deoxyribitol can be applied as treatment for cancers before, at the same time, or after any other treatment procedure(s). In addition, the effect of 2-deoxyribitol on three tissue types of cancers indicate that it can be applied for many other epithelial cancers.

[4] = Storage stability; format: physicochemical; settings: 4 degrees Celsius, highly stable
Text: as §2

[5] = test system: normal human breast epithelial cells MCF7-10F; assay: Normal breast epithelial cell culture (FIG. 8); format: cell-based; settings: 2-40 mM, 4 days
Experimental: 2-deoxyribitol was given in ascending doses of 2 mM (top middle panel), 5 mM (top right panel), 10 mM (bottom left panel), 20 mM (bottom middle panel), and 40 mM (bottom right panel). No significant differences were observed between the control and drug-treated cells at any dose.
(§3) In contrast, 2-deoxyribitol produced unnoticeable changes in cell culture of normal human myoblasts or differentiated myotubes (FIG. 7), indicating its low toxicity potential to normal cell populations. In this study, normal human myoblasts (HSKM cells) were treated with 2-deoxyribitol (Drug) for 3 days.

[6] = test system: DU 145; assay: ATPlite cell IC50 screening, DU 145; format: cell-based; settings: Homo sapiens; DU 145, Prostate carcinoma; ATPlite luminescence
Experimental: as §1

[7] = test system: NCI-H82; assay: ATPlite cell IC50 screening, NCI-H82; format: cell-based; settings: Homo sapiens; NCI-H82, Small cell lung carcinoma; ATPlite luminescence
Experimental: as §1

[8] = test system: J82; assay: ATPlite cell IC50 screening, J82; format: cell-based; settings: Homo sapiens; J82, Bladder carcinoma; ATPlite luminescence
Experimental: as §1

[9] = test system: SW48; assay: ATPlite cell IC50 screening, SW48; format: cell-based; settings: Homo sapiens; SW48, Colon adenocarcinoma; ATPlite luminescence
Experimental: as §1

[10] = test system: THP-1; assay: ATPlite cell IC50 screening, THP-1; format: cell-based; settings: Homo sapiens; THP-1, Childhood acute monocytic leukemia; ATPlite luminescence
Experimental: as §1

[11] = test system: prostate cancer cell line LNCaP; assay: LNCaP cell culture, growth and death (FIG. 5, FIG. 10); format: cell-based
Experimental: A dose dependent decrease in cell density was clearly detected with 2-deoxyribitol treatment, but not with ribitol treatment.
Less than 50% of cells and 10% of cells were detected with the treatment of 10 mM and 50 mM 2-deoxyribitol, respectively.

[12] = test system: alpha dystroglycan (α-DG); assay: Glycosylation of alpha dystroglycan; format: cell-based
Text: This invention applies a synthetic molecule, 2-deoxyribitol, to treat cancer for growth inhibition and cancer cell killing. Naturally-occurring ribitol is a metabolite, but its metabolic pathway has not been clearly defined. Recently, ribitol has been identified as a precursor of CDP-ribitol, the substrate used for the synthesis of sugar modification of a membrane protein, alpha dystroglycan (α-DG). […] The loss or reduced expression of glycosylation of α-DG has been linked to cancer progression and metastasis in breast and other cancers in clinics, and enhanced glycosylation of α-DG may inhibit cancer cell growth and tumorigenicity. This study screened several different pentose and pentitol molecules including ribose, 2-deoxyribose, ribulose, 2-deoxyribitol, xylose, and xylitol to evaluate these sugar molecules for the effects of enhancing glycosylation of α-DG and inhibiting cancer cell growth/tumorigenicity.

[13] = test system: NCI-H460; assay: ATPlite cell IC50 screening, NCI-H460; format: cell-based; settings: Homo sapiens; NCI-H460, Large cell lung carcinoma; ATPlite luminescence
Experimental: as §1

[14] = test system: 5637; assay: ATPlite cell IC50 screening, 5637; format: cell-based; settings: 5637, Bladder carcinoma; ATPlite luminescence
Experimental: as §1

[15] = test system: HCT-15; assay: ATPlite cell IC50 screening, HCT-15; format: cell-based; settings: Homo sapiens; HCT-15, Colon adenocarcinoma; ATPlite luminescence
Experimental: as §1

[16] = test system: normal human myoblasts (HSKM cells); assay: Normal human myoblast culture (FIG. 7); format: cell-based; settings: HSKM cells, 2, 10, 20 mM, 3 days
Experimental: Three different doses were tested as labeled in the images: 2 mM (top right panel), 10 mM (bottom left panel), and 20 mM (bottom right panel) 2-deoxyribitol. No-drug control is shown in top left panel. Drug effect on growth of the cells is not clearly visible.
as §3

[17] = test system: MCF7 cells; assay: Anchorage independent growth, tumor colonies in agar gel (FIG. 3); format: cell-based; settings: 20 days
Text: Stars indicate a significant difference as compared to the control (p<0.01, n=3).
However, this effect was not related to the enhanced expression of glycosylation of α-DG.

[18] = test system: COLO 205; assay: ATPlite cell IC50 screening, COLO 205; format: cell-based; settings: Homo sapiens; COLO 205, Colon adenocarcinoma; ATPlite luminescence
Experimental: as §1

[19] = test system: DB; assay: ATPlite cell IC50 screening, DB; format: cell-based; settings: Homo sapiens, Diffuse large B-cell lymphoma, ATPlite luminescence
Experimental: as §1

[20] = test system: SW982; assay: ATPlite cell IC50 screening, SW982; format: cell-based; settings: Homo sapiens; SW982, Biphasic synovial sarcoma; ATPlite luminescence
Experimental: as §1

[21] = test system: A-427; assay: ATPlite cell IC50 screening, A-427; format: cell-based; settings: Homo sapiens; A-427, Lung adenocarcinoma; ATPlite luminescence
Experimental: as §1

For `OCC[C@H](O)[C@H](O)CO` [2-deoxyribitol], the IC50 [1] was 5.73 mM, the IC50 [2] was 3.19 mM and the water solubility [3] was “water soluble”. For the same compound, the stability on storage [4] was “at least 6 months”, the “growth inhibition or cell death of normal breast cells” value [5] was “did not inhibit growth or cause cell death” and the IC50 [6] was 4.87 mM. It also gave an IC50 [7] of 2.94 mM, an IC50 [8] of 3.63 mM and an IC50 [9] of 4.49 mM. The IC50 [10] was 5.19 mM, the “cells detected after treatment” value ([11]; 10 mM, 4 days) was “Less than 50%” and the “number of cancer cells / anticancer effect” value ([11]; 10 mM, 7 days (FIG. 10)) was “markedly reduces the number of cancer cells”. For the same compound, the “cells detected after treatment” value ([11]; 50 mM, 4 days) was < 10%, the “effect on cell growth, death and cell density” value ([11]; 2-50 mM, 4 days) was “dose dependent inhibition in cell growth and death” and the “glycosylation of α-DG” value [12] was “did not enhance glycosylation of α-DG”. The IC50 [13] was 3.17 mM, the IC50 [14] was 9.33 mM and the IC50 [15] was 7.7 mM. For the same compound, the “cell density or myofiber formation versus control” value [16] was “No difference in cell density or myofiber formation”, the “cell colonies in agar culture” value ([17]; 10 mM) was “absence of cell colony” and the “anchorage independent growth (formation of tumor colonies within agar gel)” value ([17]; 10 mM and 20 mM) was “significantly inhibited”. For the same compound, the IC50 [18] was 4.54 mM, the IC50 [19] was 4.08 mM and the IC50 [20] was 2.78 mM. For the same compound, the IC50 [21] was 3.95 mM.
